# Assay results: publication PMC12196458, “An Alternative Mechanism of Glutamate Dehydrogenase Inhibition by EGCG: Promotion of Protein Degradation” (Pharmaceuticals, 2025)
# Experiments:
# bovine GDH [1] = target: T1, bovine GDH (Bos taurus, UniProt P00366); assay: Trypsin degradation assay of bovine GDH (SDS-PAGE gel); format: biochemical; conditions: 20 μg/mL trypsin; for effect on trypsin digestion of Bo.GDH: low and high concentrations (GTP 10 or 50 mM; EGCG 0.05 or 5 mM), 37 °C 1 h
# T1 construct: purchased
# T1 sequence (P00366 58-558): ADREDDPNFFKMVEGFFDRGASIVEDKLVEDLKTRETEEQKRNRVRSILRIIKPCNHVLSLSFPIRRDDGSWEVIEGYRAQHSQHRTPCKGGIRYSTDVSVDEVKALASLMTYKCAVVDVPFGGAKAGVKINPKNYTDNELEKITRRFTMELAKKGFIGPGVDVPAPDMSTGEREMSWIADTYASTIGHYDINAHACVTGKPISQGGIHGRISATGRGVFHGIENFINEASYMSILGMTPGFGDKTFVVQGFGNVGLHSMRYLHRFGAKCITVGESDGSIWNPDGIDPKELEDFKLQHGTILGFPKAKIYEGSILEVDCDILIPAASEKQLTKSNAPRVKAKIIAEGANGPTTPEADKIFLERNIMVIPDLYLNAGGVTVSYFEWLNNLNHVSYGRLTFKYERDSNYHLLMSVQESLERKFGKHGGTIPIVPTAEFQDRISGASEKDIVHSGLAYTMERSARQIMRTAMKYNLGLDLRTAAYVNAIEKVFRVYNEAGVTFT
# Experimental: (§1) Trypsin (final concentration 20 μg/mL) were mixed with 1 mg/mL (final concentration) hGDH-H454Y or bovine-GDH or BSA, respectively, in Eppendorf (EP) tubes in a phosphate buffer (pH8; 10 mM Na3PO4, 50 mM K3PO4, 100 mM NH4HCO3, 0.1% Tween80 and 0.1% Tween). Then proteins were subjected to digestion in a wet chamber at 37 °C for 1 h. Each sample was analyzed by denaturing SDS-PAGE gel. All experiments were repeated 3 times.
# (§2) 2.5 mg/mL bovine GDH (final concentration) or 2.5 mg/mL BSA proteins were mixed with various compounds (10 mM or 50 mM GTP; 0.05 mM or 5 mM EGCG) in EP tubes at room temperature for 1 h. To each tube, 20 μg/mL trypsin was added, and the reaction was carried out in a wet chamber at 37 °C for 1 h. Samples were analyzed by both denaturing SDS-PAGE gel and native-PAGE gel. All experiments were repeated 3 times.
# (§3) The dried gel was placed in the imager and photographed after the bands were clear. The gray value of the bands was calculated on a uniform background using Image-J software (1.53a). The ratio of the gray value of the strips under each experimental condition to the gray value of the control strips was calculated, as it is the relative gray value of the strips under that experimental condition.
# bovine GDH [2] = target: T1, bovine GDH; assay: GDH inhibition assay (EZMTT detection); format: biochemical; conditions: for increase in IC50 on increasing GDH concentration by 8 times: 0.3 to 2.5 mg/mL GDH
# Experimental: Since both GTP and EGCG are known allosteric GDH inhibitors, we tested their dose-dependent inhibition of different levels of GDH protein. […] EGCG inhibition of GDH is less affected by the GDH enzyme concentration.
# […] After 0.5 h pre-incubation, a mixture of Glu (10 mM final), NADP^+ ([…]), and the EZMTT detection reagent were added to each well, and the reaction was carried out at room temperature for 1 h before the absorbance measurement at 450 nm. To exclude assay artifacts, controls with no GDH were also used, and all experiments were carried out in triplicate and repeated 3 times.
# BSA = target: T2, BSA (Bos taurus, UniProt P02769); assay: Trypsin degradation assay of BSA (SDS-PAGE gel); format: biochemical, bovine
# T2 construct: purchased Biosharp
# T2 sequence (P02769 25-607): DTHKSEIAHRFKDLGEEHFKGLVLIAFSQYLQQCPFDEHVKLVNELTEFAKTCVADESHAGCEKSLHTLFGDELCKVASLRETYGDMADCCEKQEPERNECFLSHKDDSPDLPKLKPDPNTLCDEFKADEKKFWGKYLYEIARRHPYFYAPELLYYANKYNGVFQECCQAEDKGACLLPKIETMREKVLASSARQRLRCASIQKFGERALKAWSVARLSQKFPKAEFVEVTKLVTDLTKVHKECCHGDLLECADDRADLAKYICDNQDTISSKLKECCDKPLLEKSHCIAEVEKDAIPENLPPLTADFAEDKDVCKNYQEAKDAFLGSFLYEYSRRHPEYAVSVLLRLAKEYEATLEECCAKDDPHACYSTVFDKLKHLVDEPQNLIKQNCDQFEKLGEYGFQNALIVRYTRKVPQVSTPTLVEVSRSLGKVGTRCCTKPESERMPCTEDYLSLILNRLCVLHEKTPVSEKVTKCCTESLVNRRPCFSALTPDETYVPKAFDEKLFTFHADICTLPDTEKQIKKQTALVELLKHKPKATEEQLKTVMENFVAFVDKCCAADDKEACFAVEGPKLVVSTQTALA
# Experimental: as §1, §2, §3
# hGDHH454Y [3] = target: T3, hGDHH454Y (Homo sapiens, UniProt P00367, H507Y); assay: Trypsin degradation assay of hGDHH454Y (SDS-PAGE gel); format: biochemical
# T3 construct: made in house; host or cells: E. coli BL21 codon plus (pET-30a)
# T3 sequence (P00367 54-558 H507Y): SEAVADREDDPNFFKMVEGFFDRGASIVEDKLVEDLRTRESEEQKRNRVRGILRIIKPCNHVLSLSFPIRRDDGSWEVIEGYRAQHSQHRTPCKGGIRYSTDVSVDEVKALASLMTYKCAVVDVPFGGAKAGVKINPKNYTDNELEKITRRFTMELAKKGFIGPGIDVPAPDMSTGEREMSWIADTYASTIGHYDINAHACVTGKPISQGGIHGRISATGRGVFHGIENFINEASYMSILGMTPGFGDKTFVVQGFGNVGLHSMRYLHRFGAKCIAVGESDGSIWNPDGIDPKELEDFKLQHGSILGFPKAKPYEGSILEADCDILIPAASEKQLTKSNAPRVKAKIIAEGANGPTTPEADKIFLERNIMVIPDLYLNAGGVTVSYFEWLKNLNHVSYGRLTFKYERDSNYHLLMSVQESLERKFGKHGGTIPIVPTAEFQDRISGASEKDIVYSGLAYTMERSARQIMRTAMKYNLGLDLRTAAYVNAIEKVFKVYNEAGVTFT
# Experimental: as §1, §2, §3
# hGDHH454Y [4] = assay: Biolayer interference-based binding assay (Ni-NTA biosensor), hGDHH454Y; design: species or system human; conditions: KD hGDHH454Y versus wild-type
# Experimental: (§4) After immobilization of His-tagged wild-type GDH or hGDHH454Y (20 μg/mL) on a Ni-NTA biosensor, the probe was immersed in a series of dilutions of EGCG to measure binding.
# (§5) The inhibitor/substrate binding assays were performed in 3 steps: step one is coating the Ni-NTA biosensor with the human wild type and the mutant GDH proteins (20 μg/mL) for 30 min; step two is dipping the coated individual sensor into a series dilution of substrates or inhibitors, such as EGCG (0, 1, 10, 100, 1000, 10000 μM; 10-fold dilution) or trypsin (0, 0.08, 0.25, 0.75, 2.25, 6.75 μM; 3-fold dilution) for 100 s, to obtain the on-rate (kon); step three is dipping to wash with phosphate-buffered saline (PBS) for 100 s. to measure the off-rate (koff). The KD was calculated by dividing […].
# hGDHH454Y [5] = target: T3, hGDHH454Y; assay: as above; conditions: His-tagged hGDHH454Y 20 μg/mL on Ni-NTA biosensor; read-out: estimated KD
# Experimental: as §4, §5
# bovine GDH hexamer = target: T4, bovine GDH hexamer (Bos taurus, UniProt P00366); assay: Native-PAGE gel analysis of interaction of EGCG, bovine GDH and trypsin; format: biochemical
# T4 construct: purchased
# T4 sequence (P00366 58-558): as the sequence (P00366 58-558) above
# Source text: To further understand the mechanism of EGCG promoting GDH protein degradation, we investigated the interactions among EGCG, GDH, and trypsin by native gel analysis. Because the bovine GDH protein sequence shares 98% homology with the human GDH sequence and 100% homology similarity in the substrate and regulatory binding sites, we used bovine GDH as a substitute for wild-type human GDH in our studies. […] Taken together, the mechanism might be the following: binding of EGCG to hexametric GDH breaks down the hexamer into monomers, and further EGCG–trypsin complex facilitates the GDH degradation.
# as §2, §3
# wild-type hGDH = target: T5, wild-type hGDH (Homo sapiens, UniProt P00367); assay: Biolayer interference-based binding assay (Ni-NTA biosensor), wild-type hGDH; conditions: His-tagged wild-type hGDH 20 μg/mL on Ni-NTA biosensor; read-out: estimated KD
# T5 construct: confirming that these are the full-length wild-type hGDH; made in house; host or cells: E. coli BL21 (pET-30a)
# T5 sequence (P00367 54-558): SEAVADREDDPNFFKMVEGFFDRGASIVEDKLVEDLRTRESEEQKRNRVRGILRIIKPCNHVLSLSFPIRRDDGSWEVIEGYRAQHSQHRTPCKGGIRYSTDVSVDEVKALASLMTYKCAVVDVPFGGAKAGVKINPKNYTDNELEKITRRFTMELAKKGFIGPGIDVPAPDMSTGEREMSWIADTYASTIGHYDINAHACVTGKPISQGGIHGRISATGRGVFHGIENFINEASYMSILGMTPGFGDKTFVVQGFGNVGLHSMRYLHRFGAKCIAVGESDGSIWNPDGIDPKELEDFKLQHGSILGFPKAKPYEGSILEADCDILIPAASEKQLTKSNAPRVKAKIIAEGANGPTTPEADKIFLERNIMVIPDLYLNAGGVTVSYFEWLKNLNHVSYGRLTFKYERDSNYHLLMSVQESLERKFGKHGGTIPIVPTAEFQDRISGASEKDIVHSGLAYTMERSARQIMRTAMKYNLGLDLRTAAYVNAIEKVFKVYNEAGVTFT
# Experimental: as §4, §5
# [6] = high concentrations: 50 mM GTP, 5 mM EGCG
# [7] = lower concentrations: GTP 10 mM, EGCG 0.05 mM
# [8] = 20 μg/mL trypsin, 1 mg/mL protein, 1 h
increase in IC50 on increasing GDH concentration by 8 times (bovine GDH [2]),IC50 (bovine GDH [2]; bovine GDH 0.3 mg/mL),IC50 (bovine GDH [2]; bovine GDH 2.5 mg/mL),effect on trypsin digestion of BSA (BSA; [6]),effect on trypsin digestion of BSA (BSA; [7]),effect on hGDHH454Y hydrolysis by trypsin (hGDHH454Y [3]; GTP up to 50 mM),fold stronger affinity (KD) for wild-type GDH than for the H454Y mutant (hGDHH454Y [4]),Kd (hGDHH454Y [5]),effect on hexamers of bovine GDH (bovine GDH hexamer; 5 mM EGCG),Kd (wild-type hGDH),effect on hGDHH454Y hydrolysis by trypsin (hGDHH454Y [3]; 5 mM EGCG),effect on hexamers of bovine GDH (bovine GDH hexamer; trypsin 20–500 μg/mL),"degradation by trypsin alone (bovine GDH [1]; 1 mg/mL protein, 1 h)",degradation by trypsin alone (BSA; [8]),degradation by trypsin alone (hGDHH454Y [3]; [8]),Compound,effect on trypsin digestion of Bo.GDH (bovine GDH [1]),monomeric GDH degradation by trypsin (bovine GDH hexamer; 5 mM EGCG added to GDH and 20 μg/mL trypsin)
1000 fold,16 µM,16900 µM,prevented BSA digestion,essentially no significant effect,no effect,–,–,–,–,–,–,–,–,–,Nc1nc2c(ncn2[C@@H]2O[C@H](COP(=O)(O)OP(=O)(O)OP(=O)(O)O)[C@@H](O)[C@H]2O)c(=O)[nH]1 [GTP],prevented the trypsin digestion,–
50 fold,2.7 µM,138 µM,promoted BSA degradation,essentially no significant effect,–,17 fold,68 µM,converted to monomers,4.2 µM,promote,–,–,–,–,"O=C(O[C@@H]1Cc2c(O)cc(O)cc2O[C@@H]1c1cc(O)c(O)c(O)c1)c1cc(O)c(O)c(O)c1 [EGCG, (−)-cis-2-(3,4,5-trihydroxyphenyl)-3,4-dihydro-1(2H)-benzopyran-3,5,7-triol 3-gallate]",greatly increased trypsin digestion in a dose-dependent manner,more monomeric GDH degradation was observed
–,–,–,–,–,–,10^9 fold,1500 µM,–,< 1e-06 µM,–,converted to monomers,significant hydrolysis,significant hydrolysis,did not show observable degradation,Trypsin,–,–
